What was measured:
[1] = n-Octanol-phosphate buffer partition coefficient, log P of the compound at pH 7.4 by shake flask method; type: physicochemical
MDA-MB-468 = experiment: Cytotoxicity against human MDA-MB-468 cells at 10 uM after 48 hrs by SRB assay; type: functional; conditions: MDA-MB-468, 48 h, read-out: GI
T47D = experiment: Cytotoxicity against human T47D cells at 10 uM after 48 hrs by SRB assay; type: functional; conditions: read-out: GI
Hs-578T = experiment: Cytotoxicity against human Hs578T cells at 10 uM after 48 hrs by SRB assay; type: functional; conditions: read-out: GI
MCF7 = experiment: Cytotoxicity against human MCF7 cells at 10 uM after 48 hrs by SRB assay; type: functional; conditions: MCF7, 48 h, read-out: GI
MDA-MB-231 = experiment: Cytotoxicity against human MDA-MB-231 cells at 10 uM after 48 hrs by SRB assay; type: functional; conditions: MDA-MB-231, 48 h, read-out: GI
UO-31 = experiment: Cytotoxicity against human UO31 cells at 10 uM after 48 hrs by SRB assay; type: functional; conditions: UO-31, 48 h, read-out: GI
TK-10 = experiment: Cytotoxicity against human TK10 cells at 10 uM after 48 hrs by SRB assay; type: functional; conditions: TK-10, 48 h, read-out: GI
RXF 393 = experiment: Cytotoxicity against human RXF393 cells at 10 uM after 48 hrs by SRB assay; type: functional; conditions: RXF 393, 48 h, read-out: GI
SN12C = experiment: Cytotoxicity against human SN12C cells at 10 uM after 48 hrs by SRB assay; type: functional; conditions: read-out: GI
CAKI-1 = experiment: Cytotoxicity against human Caki1 cells at 10 uM after 48 hrs by SRB assay; type: functional; conditions: CAKI-1, 48 h, read-out: GI
ACHN = experiment: Cytotoxicity against human ACHN cells at 10 uM after 48 hrs by SRB assay; type: functional; conditions: read-out: GI
A498 = experiment: Cytotoxicity against human A498 cells at 10 uM after 48 hrs by SRB assay; type: functional; conditions: A498, 48 h, read-out: GI
786-0 = experiment: Cytotoxicity against human 786-0 cells at 10 uM after 48 hrs by SRB assay; type: functional; conditions: 786-0, 48 h, read-out: GI
SK-OV-3 = experiment: Cytotoxicity against human SKOV3 cells at 10 uM after 48 hrs by SRB assay; type: functional; conditions: SK-OV-3, 48 h, read-out: GI
OVCAR-5 = experiment: Cytotoxicity against human OVCAR5 cells at 10 uM after 48 hrs by SRB assay; type: functional; conditions: OVCAR-5, 48 h, read-out: GI
OVCAR-3 = experiment: Cytotoxicity against human OVCAR3 cells at 10 uM after 48 hrs by SRB assay; type: functional; conditions: OVCAR-3, 48 h, read-out: GI
IGROV-1 = experiment: Cytotoxicity against human IGROV1 cells at 10 uM after 48 hrs by SRB assay; type: functional; conditions: IGROV-1, 48 h, read-out: GI
UACC-62 = experiment: Cytotoxicity against human UACC62 cells at 10 uM after 48 hrs by SRB assay; type: functional; conditions: UACC-62, 48 h, read-out: GI
SK-MEL-28 = experiment: Cytotoxicity against human SK-MEL-28 cells at 10 uM after 48 hrs by SRB assay; type: functional; conditions: SK-MEL-28, 48 h, read-out: GI
SK-MEL-5 = experiment: Cytotoxicity against human SK-MEL-5 cells at 10 uM after 48 hrs by SRB assay; type: functional; conditions: SK-MEL-5, 48 h, read-out: GI
M14 = experiment: Cytotoxicity against human M14 cells at 10 uM after 48 hrs by SRB assay; type: functional; conditions: M14, 48 h, read-out: GI
MDA-MB-435 = experiment: Cytotoxicity against human MDA-MB-435 cells at 10 uM after 48 hrs by SRB assay; type: functional; conditions: MDA-MB-435, 48 h, read-out: GI
LOX IMVI = experiment: Cytotoxicity against human LOXIMVI cells at 10 uM after 48 hrs by SRB assay; type: functional; conditions: read-out: GI
SNB-75 = experiment: Cytotoxicity against human SNB75 cells at 10 uM after 48 hrs by SRB assay; type: functional; conditions: SNB-75, 48 h, read-out: GI
SNB-19 = experiment: Cytotoxicity against human SNB19 cells at 10 uM after 48 hrs by SRB assay; type: functional; conditions: SNB-19, 48 h, read-out: GI
SF-295 = experiment: Cytotoxicity against human SF295 cells at 10 uM after 48 hrs by SRB assay; type: functional; conditions: SF-295, 48 h, read-out: GI
SF-539 = experiment: Cytotoxicity against human SF539 cells at 10 uM after 48 hrs by SRB assay; type: functional; conditions: SF-539, 48 h, read-out: GI
SW-620 = experiment: Cytotoxicity against human SW620 cells at 10 uM after 48 hrs by SRB assay; type: functional; conditions: SW-620, 48 h, read-out: GI
HCT-15 = experiment: Cytotoxicity against human HCT15 cells at 10 uM after 48 hrs by SRB assay; type: functional; conditions: HCT-15, 48 h, read-out: GI
HCT-116 = experiment: Cytotoxicity against human HCT116 cells at 10 uM after 48 hrs by SRB assay; type: functional; conditions: HCT-116, 48 h, read-out: GI
HCC 2998 = experiment: Cytotoxicity against human HCC2998 cells at 10 uM after 48 hrs by SRB assay; type: functional; conditions: HCC 2998, 48 h, read-out: GI
COLO 205 = experiment: Cytotoxicity against human COLO205 cells at 10 uM after 48 hrs by SRB assay; type: functional; conditions: COLO 205, 48 h, read-out: GI
NCI-H522 = experiment: Cytotoxicity against human NCI-H522 cells at 10 uM after 48 hrs by SRB assay; type: functional; conditions: NCI-H522, 48 h, read-out: GI
NCI-H322M = experiment: Cytotoxicity against human NCI-H322M cells at 10 uM after 48 hrs by SRB assay; type: functional; conditions: read-out: GI
NCI-H23 = experiment: Cytotoxicity against human NCI-H23 cells at 10 uM after 48 hrs by SRB assay; type: functional; conditions: NCI-H23, 48 h, read-out: GI
HOP-62 = experiment: Cytotoxicity against human HOP62 cells at 10 uM after 48 hrs by SRB assay; type: functional; conditions: HOP-62, 48 h, read-out: GI
HOP-92 = experiment: Cytotoxicity against human HOP92 cells at 10 uM after 48 hrs by SRB assay; type: functional; conditions: HOP-92, 48 h, read-out: GI
[2] = Cytotoxicity against human EKVX cells at 10 uM after 48 hrs by SRB assay; type: functional; conditions: read-out: GI
A549 = experiment: Cytotoxicity against human A549 cells at 10 uM after 48 hrs by SRB assay; type: functional; conditions: A549, 48 h, read-out: GI
MOLT-4 = experiment: Cytotoxicity against human MOLT4 cells at 10 uM after 48 hrs by SRB assay; type: functional; conditions: MOLT-4, 48 h, read-out: GI
HL-60(TB) = experiment: Cytotoxicity against human HL-60(TB) cells at 10 uM after 48 hrs by SRB assay; type: functional; conditions: HL-60, 48 h, read-out: GI

## C=CCn1c(C)nc2ccc(Nc3nc(Cl)nc4ccccc34)cc21
[1]
  logD: 2.1
MDA-MB-468
  inhibition of growth at 10 µM: 16.3%
T47D
  inhibition of growth at 10 µM: 18.5%
Hs-578T
  inhibition of growth at 10 µM: < 10%
MCF7
  inhibition of growth at 10 µM: < 10%
MDA-MB-231
  inhibition of growth at 10 µM: 10.1%
UO-31
  inhibition of growth at 10 µM: < 10%
TK-10
  inhibition of growth at 10 µM: < 10%
RXF 393
  inhibition of growth at 10 µM: 12.5%
SN12C
  inhibition of growth at 10 µM: < 10%
CAKI-1
  inhibition of growth at 10 µM: 12.8%
ACHN
  inhibition of growth at 10 µM: < 10%
A498
  inhibition of growth at 10 µM: 44.5%
786-0
  inhibition of growth at 10 µM: 12.2%
SK-OV-3
  inhibition of growth at 10 µM: < 10%
OVCAR-5
  inhibition of growth at 10 µM: < 10%
OVCAR-3
  inhibition of growth at 10 µM: < 10%
IGROV-1
  inhibition of growth at 10 µM: < 10%
UACC-62
  inhibition of growth at 10 µM: < 10%
SK-MEL-28
  inhibition of growth at 10 µM: < 10%
SK-MEL-5
  inhibition of growth at 10 µM: < 10%
M14
  inhibition of growth at 10 µM: < 10%
MDA-MB-435
  inhibition of growth at 10 µM: < 10%
LOX IMVI
  inhibition of growth at 10 µM: < 10%
SNB-75
  inhibition of growth at 10 µM: < 10%
SNB-19
  inhibition of growth at 10 µM: < 10%
SF-295
  inhibition of growth at 10 µM: 15.2%
SF-539
  inhibition of growth at 10 µM: < 10%
SW-620
  inhibition of growth at 10 µM: < 10%
HCT-15
  inhibition of growth at 10 µM: < 10%
HCT-116
  inhibition of growth at 10 µM: < 10%
HCC 2998
  inhibition of growth at 10 µM: < 10%
COLO 205
  inhibition of growth at 10 µM: < 10%
NCI-H522
  inhibition of growth at 10 µM: < 10%
NCI-H322M
  inhibition of growth at 10 µM: < 10%
NCI-H23
  inhibition of growth at 10 µM: < 10%
HOP-62
  inhibition of growth at 10 µM: < 10%
HOP-92
  inhibition of growth at 10 µM: < 10%
[2]
  inhibition of growth at 10 µM: < 10%
A549
  inhibition of growth at 10 µM: 18.5%
MOLT-4
  inhibition of growth at 10 µM: 21.3%
HL-60(TB)
  inhibition of growth at 10 µM: 15.9%
